According to patent US20240000872A1, “NOVEL BACTERIOPHAGE THAT LYSES ACINETOBACTER GENUS BACTERIA HAVING RESISTANCE TO ANTIBIOTICS” (priority 2020, published 2024):

Tested on: Acinetobacter baumannii strains
Assay: Antibiotic susceptibility test (CLSI disk diffusion test method, read per CLSI 2016); as to antibiotic susceptibility S/I/R: key: ‘S’ means susceptible; ‘I’ means intermediate; ‘R’ means resistant; as to susceptibility category (S/I/R): key: ‘S’ means susceptible; ‘I’ means intermediate; ‘R’ means resistant
Type: cell-based
Parameters: antibiotic susceptibility test value / susceptibility test value (number given before S/I/R) / antibiotic susceptibility value: unit not given here

Substance: cortrimoxazole
- antibiotic susceptibility value (host strain YMC16/01/R353): 160
- susceptibility category (S/I/R) (host strain YMC16/01/R353): R
- susceptibility test value (number given before S/I/R) (host strain YMC16/01/R353): 160
- antibiotic susceptibility S/I/R (host strain YMC16/01/R380): S
- antibiotic susceptibility value (host strain YMC16/01/R380): 20
- susceptibility category (S/I/R) (host strain YMC16/01/R380): S
- susceptibility test value (number given before S/I/R) (host strain YMC16/01/R380): 20
- antibiotic susceptibility S/I/R (host strain YMC16/01/R397): R
- antibiotic susceptibility value (host strain YMC16/01/R397): 160
- susceptibility category (S/I/R) (host strain YMC16/01/R397): R
- susceptibility test value (number given before S/I/R) (host strain YMC16/01/R397): 160
- antibiotic susceptibility S/I/R (host strain YMC16/01/R405): R
- antibiotic susceptibility value (host strain YMC16/01/R405): 320
- susceptibility category (S/I/R) (host strain YMC16/01/R405): R
- susceptibility test value (number given before S/I/R) (host strain YMC16/01/R405): 320
- antibiotic susceptibility S/I/R (host strain YMC16/03/R4461): R
- antibiotic susceptibility value (host strain YMC16/03/R4461): 320
- susceptibility category (S/I/R) (host strain YMC16/03/R4461): R
- susceptibility test value (number given before S/I/R) (host strain YMC16/03/R4461): 320
- antibiotic susceptibility S/I/R (host strain YMC16/05/R2210): R
- antibiotic susceptibility value (host strain YMC16/05/R2210): 320
- susceptibility category (S/I/R) (host strain YMC16/05/R2210): R
- susceptibility test value (number given before S/I/R) (host strain YMC16/05/R2210): 320
- antibiotic susceptibility S/I/R (host strain YMC16/07/R2512): R
- antibiotic susceptibility value (host strain YMC16/07/R2512): 320
- susceptibility category (S/I/R) (host strain YMC16/07/R2512): R
- susceptibility test value (number given before S/I/R) (host strain YMC16/07/R2512): 320
- antibiotic susceptibility S/I/R (host strain YMC16/09/R2471): R
- antibiotic susceptibility value (host strain YMC16/09/R2471): 160
- susceptibility category (S/I/R) (host strain YMC16/09/R2471): R
- susceptibility test value (number given before S/I/R) (host strain YMC16/09/R2471): 160
- antibiotic susceptibility S/I/R (host strain YMC16/10/R2537): R
- antibiotic susceptibility value (host strain YMC16/10/R2537): 160
- susceptibility category (S/I/R) (host strain YMC16/10/R2537): R
- susceptibility test value (number given before S/I/R) (host strain YMC16/10/R2537): 160
- antibiotic susceptibility S/I/R (host strain YMC16/12/B11422): R
- antibiotic susceptibility value (host strain YMC16/12/B11422): 160
- susceptibility category (S/I/R) (host strain YMC16/12/B11422): R
- susceptibility test value (number given before S/I/R) (host strain YMC16/12/B11422): 160
- antibiotic susceptibility S/I/R (host strain YMC16/12/B11449): R
- antibiotic susceptibility value (host strain YMC16/12/B11449): 320
- susceptibility category (S/I/R) (host strain YMC16/12/B11449): R
- susceptibility test value (number given before S/I/R) (host strain YMC16/12/B11449): 320
- antibiotic susceptibility S/I/R (host strain YMC16/12/B13325): R
- antibiotic susceptibility value (host strain YMC16/12/B13325): 320
- susceptibility category (S/I/R) (host strain YMC16/12/B13325): R
- susceptibility test value (number given before S/I/R) (host strain YMC16/12/B13325): 320
- antibiotic susceptibility S/I/R (host strain YMC16/12/P503): R
- antibiotic susceptibility value (host strain YMC16/12/P503): 320
- susceptibility category (S/I/R) (host strain YMC16/12/P503): R
- susceptibility test value (number given before S/I/R) (host strain YMC16/12/P503): 320
- antibiotic susceptibility S/I/R (host strain YMC16/12/R4637): R
- antibiotic susceptibility value (host strain YMC16/12/R4637): 320
- susceptibility category (S/I/R) (host strain YMC16/12/R4637): R
- susceptibility test value (number given before S/I/R) (host strain YMC16/12/R4637): 320
- antibiotic susceptibility S/I/R (host strain YMC17/01/B8053): R
- antibiotic susceptibility value (host strain YMC17/01/B8053): 320
- susceptibility category (S/I/R) (host strain YMC17/01/B8053): R
- susceptibility test value (number given before S/I/R) (host strain YMC17/01/B8053): 320
- antibiotic susceptibility S/I/R (host strain YMC17/01/B10087): R
- antibiotic susceptibility value (host strain YMC17/01/B10087): 160
- susceptibility category (S/I/R) (host strain YMC17/01/B10087): R
- susceptibility test value (number given before S/I/R) (host strain YMC17/01/B10087): 160
- antibiotic susceptibility S/I/R (host strain YMC17/01/B12075): S
- antibiotic susceptibility value (host strain YMC17/01/B12075): 20
- susceptibility category (S/I/R) (host strain YMC17/01/B12075): S
- susceptibility test value (number given before S/I/R) (host strain YMC17/01/B12075): 20
- antibiotic susceptibility S/I/R (host strain YMC17/01/B13454): R
- antibiotic susceptibility value (host strain YMC17/01/B13454): 160
- susceptibility category (S/I/R) (host strain YMC17/01/B13454): R
- susceptibility test value (number given before S/I/R) (host strain YMC17/01/B13454): 160
- antibiotic susceptibility S/I/R (host strain YMC17/01/P518): R
- antibiotic susceptibility value (host strain YMC17/01/P518): 160
- susceptibility category (S/I/R) (host strain YMC17/01/P518): R
- susceptibility test value (number given before S/I/R) (host strain YMC17/01/P518): 160
- antibiotic susceptibility S/I/R (host strain YMC17/01/R2812): R
- antibiotic susceptibility value (host strain YMC17/01/R2812): 320
- susceptibility category (S/I/R) (host strain YMC17/01/R2812): R
- susceptibility test value (number given before S/I/R) (host strain YMC17/01/R2812): 320
- antibiotic susceptibility S/I/R (host strain YMC17/02/B14): R
- antibiotic susceptibility value (host strain YMC17/02/B14): 320
- susceptibility category (S/I/R) (host strain YMC17/02/B14): R
- susceptibility test value (number given before S/I/R) (host strain YMC17/02/B14): 320
- antibiotic susceptibility S/I/R (host strain YMC17/02/B87): R
- antibiotic susceptibility value (host strain YMC17/02/B87): 320
- susceptibility category (S/I/R) (host strain YMC17/02/B87): R
- susceptibility test value (number given before S/I/R) (host strain YMC17/02/B87): 320
- antibiotic susceptibility S/I/R (host strain YMC17/02/B721): R
- antibiotic susceptibility value (host strain YMC17/02/B721): 320
- susceptibility category (S/I/R) (host strain YMC17/02/B721): R
- susceptibility test value (number given before S/I/R) (host strain YMC17/02/B721): 320
- antibiotic susceptibility S/I/R (host strain YMC17/02/B4039): R
- antibiotic susceptibility value (host strain YMC17/02/B4039): 80
- susceptibility category (S/I/R) (host strain YMC17/02/B4039): R
- susceptibility test value (number given before S/I/R) (host strain YMC17/02/B4039): 80
- antibiotic susceptibility S/I/R (host strain YMC17/02/B4520): R
- antibiotic susceptibility value (host strain YMC17/02/B4520): 160
- susceptibility category (S/I/R) (host strain YMC17/02/B4520): R
- susceptibility test value (number given before S/I/R) (host strain YMC17/02/B4520): 160
- antibiotic susceptibility S/I/R (host strain YMC17/02/B4864): S
- antibiotic susceptibility value (host strain YMC17/02/B4864): 20
- susceptibility category (S/I/R) (host strain YMC17/02/B4864): S
- susceptibility test value (number given before S/I/R) (host strain YMC17/02/B4864): 20
- antibiotic susceptibility S/I/R (host strain YMC17/02/B8414): R
- antibiotic susceptibility value (host strain YMC17/02/B8414): 320
- susceptibility category (S/I/R) (host strain YMC17/02/B8414): R
- susceptibility test value (number given before S/I/R) (host strain YMC17/02/B8414): 320
- antibiotic susceptibility S/I/R (host strain YMC17/02/P523): S
- antibiotic susceptibility value (host strain YMC17/02/P523): 20
- susceptibility category (S/I/R) (host strain YMC17/02/P523): S
- susceptibility test value (number given before S/I/R) (host strain YMC17/02/P523): 20
- antibiotic susceptibility S/I/R (host strain YMC17/02/R541): R
- antibiotic susceptibility value (host strain YMC17/02/R541): 320
- susceptibility category (S/I/R) (host strain YMC17/02/R541): R
- susceptibility test value (number given before S/I/R) (host strain YMC17/02/R541): 320
- antibiotic susceptibility S/I/R (host strain YMC17/02/R2392): R
- antibiotic susceptibility value (host strain YMC17/02/R2392): 320
- susceptibility category (S/I/R) (host strain YMC17/02/R2392): R
- susceptibility test value (number given before S/I/R) (host strain YMC17/02/R2392): 320
- antibiotic susceptibility S/I/R (host strain YMC17/03/B4730): R
- antibiotic susceptibility value (host strain YMC17/03/B4730): 320
- susceptibility category (S/I/R) (host strain YMC17/03/B4730): R
- susceptibility test value (number given before S/I/R) (host strain YMC17/03/B4730): 320
- antibiotic susceptibility S/I/R (host strain YMC17/03/B5000): R
- antibiotic susceptibility value (host strain YMC17/03/B5000): 320
- susceptibility category (S/I/R) (host strain YMC17/03/B5000): R
- susceptibility test value (number given before S/I/R) (host strain YMC17/03/B5000): 320
- antibiotic susceptibility S/I/R (host strain YMC17/03/P971): R
- antibiotic susceptibility value (host strain YMC17/03/P971): 320
- susceptibility category (S/I/R) (host strain YMC17/03/P971): R
- susceptibility test value (number given before S/I/R) (host strain YMC17/03/P971): 320
- antibiotic susceptibility S/I/R (host strain YMC17/03/R348): R
- antibiotic susceptibility value (host strain YMC17/03/R348): 320
- susceptibility category (S/I/R) (host strain YMC17/03/R348): R
- susceptibility test value (number given before S/I/R) (host strain YMC17/03/R348): 320
- antibiotic susceptibility S/I/R (host strain YMC17/03/R585): R
- antibiotic susceptibility value (host strain YMC17/03/R585): 320
- susceptibility category (S/I/R) (host strain YMC17/03/R585): R
- susceptibility test value (number given before S/I/R) (host strain YMC17/03/R585): 320
- antibiotic susceptibility S/I/R (host strain YMC17/03/R1888): R
- antibiotic susceptibility value (host strain YMC17/03/R1888): 320
- susceptibility category (S/I/R) (host strain YMC17/03/R1888): R
- susceptibility test value (number given before S/I/R) (host strain YMC17/03/R1888): 320
- antibiotic susceptibility S/I/R (host strain YMC17/03/R3279): R
- antibiotic susceptibility value (host strain YMC17/03/R3279): 320
- susceptibility category (S/I/R) (host strain YMC17/03/R3279): R
- susceptibility test value (number given before S/I/R) (host strain YMC17/03/R3279): 320
- antibiotic susceptibility S/I/R (host strain YMC17/03/R4077): R
- antibiotic susceptibility value (host strain YMC17/03/R4077): 320
- susceptibility category (S/I/R) (host strain YMC17/03/R4077): R
- susceptibility test value (number given before S/I/R) (host strain YMC17/03/R4077): 320
- antibiotic susceptibility S/I/R (host strain YMC17/03/R4607): R
- antibiotic susceptibility value (host strain YMC17/03/R4607): 320
- susceptibility category (S/I/R) (host strain YMC17/03/R4607): R
- susceptibility test value (number given before S/I/R) (host strain YMC17/03/R4607): 320
- antibiotic susceptibility S/I/R (host strain YMC17/04/R488): R
- antibiotic susceptibility value (host strain YMC17/04/R488): 160
- susceptibility category (S/I/R) (host strain YMC17/04/R488): R
- susceptibility test value (number given before S/I/R) (host strain YMC17/04/R488): 160
- antibiotic susceptibility S/I/R (host strain YMC17/04/R640): R
- antibiotic susceptibility value (host strain YMC17/04/R640): 320
- susceptibility category (S/I/R) (host strain YMC17/04/R640): R
- susceptibility test value (number given before S/I/R) (host strain YMC17/04/R640): 320
- antibiotic susceptibility S/I/R (host strain YMC/17/05/R1095): R
- antibiotic susceptibility value (host strain YMC/17/05/R1095): 320
- susceptibility category (S/I/R) (host strain YMC/17/05/R1095): R
- susceptibility test value (number given before S/I/R) (host strain YMC/17/05/R1095): 320
